In PubChem BioAssay AID1259407 (Chemical Carcinogenesis Research Information System (CCRIS), 2018):
Active and inactive are the calls of the source. The rule behind the calls is not given here.

Tested on: CCRIS mutagenicity, Ames/micronucleus/aberration tests
Assay: CCRIS mutagenicity studies
[1] = Test System: AMES SALMONELLA TYPHIMURIUM, Strain/Indicator: TA98, Metabolic Activation: NONE, Method: PREINCUBATION
[2] = Test System: AMES SALMONELLA TYPHIMURIUM, Strain/Indicator: TA98, Metabolic Activation: NONE, Method: STANDARD PLATE
[3] = Test System: AMES SALMONELLA TYPHIMURIUM, Strain/Indicator: TA100, Metabolic Activation: NONE, Method: STANDARD PLATE

For Cc1cc(-c2ccc(N=C=O)c(C)c2)ccc1N=C=O, the mutagenic call (End Point: IN VITRO CHROMOSOMAL ABERRATIONS, Test System: CHL CELLS, Metabolic Activation: RAT, LIVER, S-9, SODIUM PHENOBARBITAL AND 5,6-BENZOFLAVONE) was “active; positive (structural changes)”, the mutagenic call [1] was “inactive; negative” and the mutagenic call (Test System: AMES SALMONELLA TYPHIMURIUM, Strain/Indicator: TA98, Metabolic Activation: RAT LIVER S-9, PHENOBARBITAL AND BETA-NAPHTHOFLAVONE, Method: PREINCUBATION) was “active; positive”. For the same compound, the mutagenic call (Test System: AMES SALMONELLA TYPHIMURIUM, Strain/Indicator: TA100, Metabolic Activation: NONE, Method: PREINCUBATION) was “inactive; negative”, the mutagenic call (Test System: AMES SALMONELLA TYPHIMURIUM, Strain/Indicator: TA100, Metabolic Activation: RAT LIVER S-9, PHENOBARBITAL AND BETA-NAPHTHOFLAVONE, Method: PREINCUBATION) was “inactive; negative” and the mutagenic call (Test System: AMES SALMONELLA TYPHIMURIUM, Strain/Indicator: TA1535, Metabolic Activation: NONE, Method: PREINCUBATION) was “inactive; negative”. For the same compound, the mutagenic call (Test System: AMES SALMONELLA TYPHIMURIUM, Strain/Indicator: TA1535, Metabolic Activation: RAT LIVER S-9, PHENOBARBITAL AND BETA-NAPHTHOFLAVONE, Method: PREINCUBATION) was “inactive; negative”, the mutagenic call (Test System: AMES SALMONELLA TYPHIMURIUM, Strain/Indicator: TA1537, Metabolic Activation: NONE, Method: PREINCUBATION) was “inactive; negative” and the mutagenic call (Test System: AMES SALMONELLA TYPHIMURIUM, Strain/Indicator: TA1537, Metabolic Activation: RAT LIVER S-9, PHENOBARBITAL AND BETA-NAPHTHOFLAVONE, Method: PREINCUBATION) was “inactive; negative”. The mutagenic call (Test System: AMES SALMONELLA TYPHIMURIUM, Strain/Indicator: TA1538, Metabolic Activation: NONE, Method: PREINCUBATION) was “inactive; negative”, the mutagenic call (Test System: AMES SALMONELLA TYPHIMURIUM, Strain/Indicator: TA1538, Metabolic Activation: RAT LIVER S-9, PHENOBARBITAL AND BETA-NAPHTHOFLAVONE, Method: PREINCUBATION) was “active; positive” and the mutagenic call (Test System: E.COLI, Strain/Indicator: WP2UVRA, Metabolic Activation: NONE, Method: PREINCUBATION) was “inactive; negative”. For the same compound, the mutagenic call (Test System: E.COLI, Strain/Indicator: WP2UVRA, Metabolic Activation: RAT LIVER S-9, PHENOBARBITAL AND BETA-NAPHTHOFLAVONE, Method: PREINCUBATION) was “inactive; negative”.

In the case of CC(Cl)(Cl)Cl, the mutagenic call (End Point: IN VITRO CHROMOSOMAL ABERRATIONS, Test System: CHINESE HAMSTER OVARY CELLS, Metabolic Activation: NONE) is reported as “active; positive”, the mutagenic call (End Point: IN VITRO CHROMOSOMAL ABERRATIONS, Test System: CHINESE HAMSTER OVARY CELLS, Metabolic Activation: RAT, LIVER, S-9, AROCLOR 1254) is reported as “inactive; negative” and the mutagenic call (End Point: In vitro chromosomal aberrations, Test System: Chinese hamster lung (CHL/IU) cells, Metabolic Activation: Rat, Liver, S9, Phenobarbital and 5,6-benzoflavone) is reported as “inactive; negative (structural changes and ploidy showed weak response without dose respon”. The mutagenic call (Test System: AMES SALMONELLA TYPHIMURIUM, Strain/Indicator: TA97, Metabolic Activation: NONE, Method: STANDARD PLATE) was “active; positive”, the mutagenic call (Test System: AMES SALMONELLA TYPHIMURIUM, Strain/Indicator: TA97, Metabolic Activation: RAT, LIVER S-9, AROCLOR 1254, Method: STANDARD PLATE) was “active; positive” and the mutagenic call [2] was “active; positive”. For the same compound, the mutagenic call (Test System: AMES SALMONELLA TYPHIMURIUM, Strain/Indicator: TA98, Metabolic Activation: RAT, LIVER S-9, AROCLOR 1254, Method: STANDARD PLATE) was “active; positive”, the mutagenic call [3] was “active; positive” and the mutagenic call (Test System: AMES SALMONELLA TYPHIMURIUM, Strain/Indicator: TA100, Metabolic Activation: NONE, Method: VAPOR CHAMBER) was “active; positive”. For the same compound, the mutagenic call (Test System: AMES SALMONELLA TYPHIMURIUM, Strain/Indicator: TA100, Metabolic Activation: RAT, LIVER S-9, AROCLOR 1254, Method: STANDARD PLATE) was “inactive; negative”, the mutagenic call (Test System: AMES SALMONELLA TYPHIMURIUM, Strain/Indicator: TA100, Metabolic Activation: RAT, LIVER, S-9, AROCLOR 1254, Method: DESICCATOR) was “active; positive” and the mutagenic call (Test System: AMES SALMONELLA TYPHIMURIUM, Strain/Indicator: TA100, Metabolic Activation: RAT, LIVER, S-9, AROCLOR 1254, Method: VAPOR CHAMBER) was “active; positive”. For the same compound, the mutagenic call (Test System: AMES SALMONELLA TYPHIMURIUM, Strain/Indicator: TA104, Metabolic Activation: NONE, Method: STANDARD PLATE) was “inactive; negative”, the mutagenic call (Test System: AMES SALMONELLA TYPHIMURIUM, Strain/Indicator: TA104, Metabolic Activation: RAT, LIVER, S-9, AROCLOR 1254, Method: STANDARD PLATE) was “active; positive” and the mutagenic call (Test System: AMES SALMONELLA TYPHIMURIUM, Strain/Indicator: TA1535, Metabolic Activation: NONE, Method: VAPOR CHAMBER) was “active; positive”. The mutagenic call (Test System: AMES SALMONELLA TYPHIMURIUM, Strain/Indicator: TA1535, Metabolic Activation: RAT, LIVER, S-9, AROCLOR 1254, Method: VAPOR CHAMBER) was “active; positive”.

With c1ccc([C@H]2N[C@@H]2c2ccccc2)cc1 the mutagenic call [2] was “inactive; negative”, the mutagenic call [3] was “active; positive” and the mutagenic call (Test System: AMES SALMONELLA TYPHIMURIUM, Strain/Indicator: TA1537, Metabolic Activation: NONE, Method: STANDARD PLATE) was “inactive; negative”.

C[C@H](CCC(=O)O)[C@H]1CC[C@H]2[C@@H]3CC[C@@H]4CC(=O)CC[C@]4(C)[C@H]3C[C@H](O)[C@]12C was tested, and the mutagenic call (Test System: AMES SALMONELLA TYPHIMURIUM, Strain/Indicator: TA98, Metabolic Activation: NONE, Method: FLUCTUATION TEST) was “inactive; negative”, the mutagenic call [1] was “inactive; negative” and the mutagenic call (Test System: AMES SALMONELLA TYPHIMURIUM, Strain/Indicator: TA98, Metabolic Activation: RAT, LIVER, S-9, PCB, Method: PREINCUBATION) was “inactive; negative”. The mutagenic call (Test System: AMES SALMONELLA TYPHIMURIUM, Strain/Indicator: TA100, Metabolic Activation: NONE, Method: FLUCTUATION TEST) was “inactive; negative”.
